Data taken from publication PMC6143478, “Lipophilic activated ester prodrug approach for drug delivery to the intestinal lymphatic system” (Journal of Controlled Release, 2018).
“Also recorded” adds a separate entry of the source. One block for each molecule: values may come before it.

Legend:
human chylomicrons (CM) = assay: Ex vivo association with human plasma-derived chylomicrons; format: in vitro ADME; settings: in words; for association with human chylomicrons (CM): 1.755 μM, 37 °C, 1 h, relative to parent drug
Excerpt: The protocol for preparation of human plasma-derived CM emulsion was approved by the Faculty of Medicine and Health Sciences Research Ethics Committee, Queens Medical Centre, Nottingham University Hospitals (BT12102015 CBS SoP). Healthy male volunteers of 19–40 years old and with body mass index of 18.5–25.0 were enrolled in the study after providing informed consent. The participants were excluded if any medication was used within one week prior to enrolment. On the morning of the study, participants received a high-fat meal (equivalent to a full English breakfast). Between 3 and 4 h following breakfast, 30 mL of blood was collected using heparinised tubes (Vacutainer® Blood Collection Tubes) and centrifuged (800 g, 10 min, 15 °C) to obtain plasma.
CM separation was performed as previously reported with minor modifications. Briefly, KBr (0.57 g) was mixed with 4 mL of plasma to yield density of 1.1 g/mL. PBS with densities of 1.006, 1.019, and 1.063 g/mL were prepared by adding appropriate amounts of KBr. These PBS of different densities were layered on top of the plasma to build density gradient layers in polyallomer ultracentrifuge tubes. The samples were then centrifuged at 268,350 g for 35 min at 15 °C using an ultracentrifuge (SORVALL® TH-641 Rotor, Thermo Fisher Scientific, UK). Following ultracentrifugation, approximately 1 mL of the upper layer containing CM was collected. TG concentration of CM emulsion was assessed using the TG enzymatic kit (Sigma Aldrich, Dorset, UK). TG concentration of the emulsion was adjusted to 100 mg/dL by diluting with PBS of 1.006 g/mL density. The CM emulsion was stored at 4 °C until the association assay (˂24 h).
(§1) The association of the compounds with artificial lipid particle emulsion and human CM was assessed using previously reported methodology with minor modifications. Briefly, 1 mL of artificial lipid particle or CM emulsions (TG concentration 100 mg/dL) was used for the association assay. The emulsion was spiked with stock solutions of tested compounds (in acetonitrile) to give a final concentration of 1.755 μM. The reaction mixtures were incubated at 37 °C for 1 h with magnetic stirring at 300 rpm. Following the incubation, density gradient ultracentrifugation was applied as described above to isolate the artificial lipid particles or CM associated with the tested compounds from the rest of the experimental medium. All experiments were conducted in quintuplicates or above.

[1] = test system: esterase from porcine liver; assay: Prodrug conversion assay in FaSSIF with added esterase activity; format: in vitro ADME; settings: esterase 20 IU/mL, 10 μM, 37 °C, 4 h; in words
Description: BEX was purchased from LC Laboratories (Woburn, MA, USA). RA (all-trans), Intralipid®, esterase from porcine liver, sodium taurocholate (NaTc), NaCl, NaF and lecithin were obtained from Sigma (Gillingham, UK). Rat plasma was purchased from Sera Laboratories (West Sussex, UK). Thiazolyl blue tetrazolium bromide (MTT), sesame oil, polyethylene glycol 400 (PEG400) and all solvents (HPLC grade or higher) were purchased from Fisher Scientific (Loughborough, UK).
The prodrugs were tested for their stability and conversion into their corresponding active drug using fasted state simulated intestinal fluid (FaSSIF) with added esterase enzyme activity (20 IU/mL), rat plasma, and postprandial rat lymph. The FaSSIF was prepared as previously described in the literature. The medium was pre-heated to 37 °C prior to the assay for 5 min. […] When the stability of the artificial emulsion-associated prodrugs was tested in plasma, the association of compounds with artificial emulsion was performed prior to stability experiments and the concentrations of the compounds in the associated emulsion were measured. […] Samples were withdrawn at pre-determined time points, and the reaction was terminated by addition of acetonitrile. […] Half-life of active drug release (t1/2) was calculated by the following equation: t1/2 = −0.693/k. […]

[2] = Prodrug conversion assay in rat plasma; format: in vitro ADME
Description: (§2) The prodrugs were tested for their stability and conversion into their corresponding active drug using fasted state simulated intestinal fluid (FaSSIF) with added esterase enzyme activity (20 IU/mL), rat plasma, and postprandial rat lymph. The FaSSIF was prepared as previously described in the literature. The medium was pre-heated to 37 °C prior to the assay for 5 min. The experiment was initiated by spiking stock solutions of prodrugs to give a final concentration of 10 μM of the prodrugs in the medium. When the stability of the artificial emulsion-associated prodrugs was tested in plasma, the association of compounds with artificial emulsion was performed prior to stability experiments and the concentrations of the compounds in the associated emulsion were measured. The emulsion was then spiked to give a concentration of 10 μM of the prodrugs in plasma. The reaction mixtures were incubated at 37 °C and shaken at 200 rpm on a temperature-controlled orbital shaker (Thermo Scientific MaxQ4000, Waltham, MA, USA) for 4 h. Samples were withdrawn at pre-determined time points, and the reaction was terminated by addition of acetonitrile. The samples were then subjected to sample preparation and analysis as described below. The natural log percentage of the prodrug concentration was plotted against incubation time, and the slope (k) was obtained from the plot. Half-life of active drug release (t1/2) was calculated by the following equation: t1/2 = −0.693/k. All experiments were conducted in triplicate.

[3] = Prodrug conversion assay in postprandial rat lymph; format: in vitro ADME; settings: CM-rich postprandial rat lymph, ex vivo; relative to rat plasma
Description: as §2, with “The natural log percentage of the prodrug concentration was plotted against incubation time, and the slope (k) was obtained from the plot.” left out, “All experiments were conducted in triplicate.” left out

[4] = Biodistribution to mesenteric lymph nodes (MLN) and lymph following oral administration in rats; format: in vivo; settings: rat
Description: The protocols for pharmacokinetic and biodistribution experiments in this study were reviewed and approved by the University of Nottingham Ethical Review Committee in accordance with the Animals [Scientific Procedures] Act 1986. Male Sprague Dawley rats (Charles River Laboratories, UK) weighing 350–380 g were used. The animals were housed in the Bio Support Unit, University of Nottingham. Continuous lymph collection was performed according to a protocol approved by the Institutional Animal Care and Use Committee at Rutgers, The State University of New Jersey. Male Sprague Dawley rats (Envigo, Inc., NJ, USA) weighing 300–350 g were used for the continuous lymph collection. Animals were allowed free access to food and water and were acclimatised for at least 6 days prior to any procedures at both institutions in a controlled-temperature environment with 12 h light/dark cycles.
Formulations were prepared as described in the above pharmacokinetic study and were delivered by an oral gavage. Animals were euthanised at pre-determined time points. Blood was collected from the posterior vena cava and lymph samples were taken from the mesenteric lymph duct. MLNs were dissected and collected as previously described. The MLNs were isolated from surrounding tissue with care not to compromise the integrity of the lymph nodes. The MLNs were homogenised (POLYTRON® PT 10–35 GT, Kinematica AG, Luzern, Switzerland) with 10 mg/mL NaF in water (1,2, w/v) on an ice bath prior to sample preparation for HPLC analysis.
A combination of protein precipitation and liquid-liquid extraction was applied to samples prior to HPLC injection. To 100 μL sample, 300 μL of acetonitrile was added for protein precipitation and then 300 μL of pH modifier was added when necessary (Supplementary Material Table S2). […] The organic layer was separated and evaporated under N2 gas. Reconstitution solvent (100 μL) was used as detailed in Supplementary Material Table S2 and 40 μL was injected into the HPLC-UV system. […] Therefore, storage and preparation of all samples were performed within the time frame and conditions of confirmed stability.
The HPLC-UV system consisting of a separation module (Waters Alliance 2695) equipped with a UV detector (Waters 996) was used for analysis. Samples in the autosampler were maintained at 4 °C and the column at 40 °C. The stationary and mobile phases were used as specified in Supplementary Material Table S2. BEX and its prodrugs were detected at 259 nm and RA and its prodrugs at 357 nm.

[5] = In vitro association with artificial lipid particle emulsion prepared from Intralipid; format: in vitro ADME; settings: TG 100 mg/dL, 1.755 μM, 37 °C, 1 h, in words, relative to parent drug
Description: To prepare the artificial lipid particle emulsion, Intralipid® 20% (Sigma, Gillingham, UK) was diluted using phosphate buffered saline (PBS) to yield 100 mg/dL of triglyceride (TG) concentration. A TG enzymatic kit (Sigma Aldrich, Dorset, UK) was used to monitor the TG concentration by following manufacturer's instructions.
as §1

Structure (SMILES): C=C(c1ccc(C(=O)OC)cc1)c1cc2c(cc1C)C(C)(C)CCC2(C)C [prodrug 1]
association with human chylomicrons (CM) (human chylomicrons (CM)): equally high affinity to CM

conversion to BEX in FaSSIF with esterase [1]: too slow to be detected
Structure (SMILES): C=C(c1ccc(C(=O)OCCCCCCCC)cc1)c1cc2c(cc1C)C(C)(C)CCC2(C)C [prodrug 9]

Structure (SMILES): C=C(c1ccc(C(=O)OCCN(C(C)C)C(C)C)cc1)c1cc2c(cc1C)C(C)(C)CCC2(C)C [prodrug 24]
difference in affinity for artificial emulsion versus natural human CM (human chylomicrons (CM)): significant differences

Structure (SMILES): C=C(c1ccc(C(=O)OCCC)cc1)c1cc2c(cc1C)C(C)(C)CCC2(C)C [prodrug 4]
association with human chylomicrons (CM) (human chylomicrons (CM)): equally high affinity to CM

conversion of emulsion-associated form of prodrug in rat plasma ([2]; prodrug incorporated into Intralipid lipid particles, 10 μM, relative to free form): delayed conversion
half-life at 10 μM ([2]; rat, plasma, in vitro, 37 °C, free form, read-out: half-life of active drug release in rat plasma): 8 min
half-life of active drug release in postprandial lymph [3]: prolonged
Structure (SMILES): C=C(c1ccc(C(=O)OCc2oc(=O)oc2C)cc1)c1cc2c(cc1C)C(C)(C)CCC2(C)C [prodrug 25]

conversion to BEX in FaSSIF with esterase [1]: too slow to be detected
Structure (SMILES): C=C(c1ccc(C(=O)OC(C(C)C)C(C)C)cc1)c1cc2c(cc1C)C(C)(C)CCC2(C)C [prodrug 18]

concentrations of BEX in intestinal lymphatics (MLNs, lymph) relative to plasma ([4]; BEX analyte, dose equivalent to 10 mg/kg BEX, in words): comparable to that in plasma
Structure (SMILES): C=C(c1ccc(C(=O)OC(COC(=O)CCCCCCCCCCCCCCC)COC(=O)CCCCCCCCCCCCCCC)cc1)c1cc2c(cc1C)C(C)(C)CCC2(C)C [prodrug 13]
intact form of prodrug in samples ([4]; plasma, MLN, lymph, any time point): not found in any sample at any time point
conversion to BEX in rat plasma ([2]; in vitro, 10 μM, 37 °C, 4 h, in words): BEX was not released; also recorded: not observed

Structure (SMILES): CCOC(=O)/C=C(C)/C=C/C=C(C)/C=C/C1=C(C)CCCC1(C)C [prodrug 26]
association with human chylomicrons (CM) (human chylomicrons (CM)): improved association
association with artificial emulsion [5]: improved association

Structure (SMILES): CC1=C(/C=C/C(C)=C/C=C/C(C)=C/C(=O)OCc2oc(=O)oc2C)C(C)(C)CCC1 [prodrug 27]
association with human chylomicrons (CM) (human chylomicrons (CM)): improved association
association with artificial emulsion [5]: improved association
